This test concerns the target T1, recombinant N-terminal MLH1 (residues 15-340) (Homo sapiens, UniProt P40692).
T1 construct: recombinant N-terminal MLH1 (residues 15-340)
T1 sequence (P40692 15-340): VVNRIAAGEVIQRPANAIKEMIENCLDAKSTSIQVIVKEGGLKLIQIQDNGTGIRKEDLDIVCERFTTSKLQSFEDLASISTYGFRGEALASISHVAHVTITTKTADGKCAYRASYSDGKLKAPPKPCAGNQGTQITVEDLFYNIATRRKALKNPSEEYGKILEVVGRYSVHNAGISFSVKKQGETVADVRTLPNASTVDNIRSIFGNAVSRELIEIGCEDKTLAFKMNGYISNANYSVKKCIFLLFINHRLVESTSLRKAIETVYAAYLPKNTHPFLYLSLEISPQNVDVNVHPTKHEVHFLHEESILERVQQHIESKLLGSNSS
The test is described as follows: Fluorescence Polarisation Assay for MLH1. In kind it is binding. The conditions noted are these: 100 nM N-terminal MLH1, 5 nM probe compound. The method, boiled down: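 Fluorescence polarisation displacement: 100 nM MLH1 (15-340) preincubated 30 min at room temperature with compound, then 5 nM rhodamine-labelled probe added and read immediately. Buffer 25 mM HEPES pH 7.5, 250 mM NaCl, 10 mM MgCl2, 0.01% Triton X-100, 5 mM DTT; normalised to no-inhibitor and no-enzyme controls.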

As for `N#Cc1cc(O)c(C(=O)N2Cc3cccc(NC4COC4)c3C2)c(OCc2ccccn2)c1` [Example 10.38, 3-Hydroxy-4-(4-(oxetan-3-ylamino)isoindoline-2-carbonyl)-5-(pyridin-2-ylmethoxy)benzonitrile], the IC50 (usually the concentration that inhibits the measured activity by half) lay within 1000 to 10000 nM.
On to `N#Cc1cc(O)c(C(=O)N2Cc3cccc(N[C@H]4CCOC4)c3C2)c(OCc2ccccn2)c1` [Example 10.39, (S)-3-Hydroxy-5-(pyridin-2-ylmethoxy)-4-(4-((tetrahydrofuran-3-yl)amino)isoindoline-2-carbonyl)benzonitrile], for which the IC50 was 100 to 1000 nM.
Turning to `N#Cc1cc(O)c(C(=O)N2Cc3cccc(N[C@H]4CCOC4)c3C2)c(OCc2ccccc2)c1` [Example 12, (S)-3-(Benzyloxy)-5-hydroxy-4-(4-((tetrahydrofuran-3-yl)amino)isoindoline-2-carbonyl)benzonitrile], the IC50 lay within 100 to 1000 nM.
As for `COc1cc(C#N)cc(O)c1C(=O)N1Cc2cccc(N[C@H]3CCOC3)c2C1` [Example 12.1, (S)-3-Hydroxy-5-methoxy-4-(4-((tetrahydrofuran-3-yl)amino)isoindoline-2-carbonyl)benzonitrile], the IC50 was 1000 to 10000 nM.
As to `N#Cc1cc(O)c(C(=O)N2Cc3cccc(N[C@H]4CCOC4)c3C2)c(OCC2CC2)c1` [Example 12.2, (S)-3-(Cyclopropylmethoxy)-5-hydroxy-4-(4-((tetrahydrofuran-3-yl)amino)isoindoline-2-carbonyl)benzonitrile], the half-inhibitory concentration (IC50) is 1000 to 10000 nM.
Consider `N#Cc1cc(O)c(C(=O)N2Cc3cccc(N[C@@H]4CCOC4)c3C2)c(OCc2ccccc2)c1` [Example 12.3, (R)-3-(Benzyloxy)-5-hydroxy-4-(4-((tetrahydrofuran-3-yl)amino)isoindoline-2-carbonyl)benzonitrile], for which the IC50 is 1000 to 10000 nM.
On to `N#Cc1cc(O)c(C(=O)N2Cc3ccccc3C2)c(OCc2ccccc2)c1` [Example 12.4, 3-(Benzyloxy)-5-hydroxy-4-(isoindoline-2-carbonyl)benzonitrile], for which the IC50 fell in the range of 1000 to 10000 nM.
`COc1ccc2c(c1)CN(C(=O)c1c(O)cc(C#N)cc1OCc1ccccc1)C2` [Example 13, 3-(Benzyloxy)-5-hydroxy-4-(5-methoxyisoindoline-2-carbonyl)benzonitrile]: the IC50 lay in the range of 1000 to 10000 nM.
For `CN(C)CCOc1cc2c(c(N[C@@H]3CCOC3)c1)CN(C(=O)c1c(O)cc(C#N)cc1OCc1ccccc1)CC2` [Example 14, (R)-3-(Benzyloxy)-4-(6-(2-(dimethylamino)ethoxy)-8-((tetrahydrofuran-3-yl)amino)-1,2,3,4-tetrahydroisoquinoline-2-carbonyl)-5-hydroxybenzonitrile], the half-maximal inhibitory concentration (IC50) lay in the range of 100 to 1000 nM.
Under `CN(C)CCOc1cc2c(c(N[C@H]3CCOC3)c1)CN(C(=O)c1c(O)cc(C#N)cc1OCc1ccccc1)CC2` [Example 15, (S)-3-(Benzyloxy)-4-(6-(2-(dimethylamino)ethoxy)-8-((tetrahydrofuran-3-yl)amino)-1,2,3,4-tetrahydroisoquinoline-2-carbonyl)-5-hydroxybenzonitrile] stands under 100 nM.
As for `CC(=O)N1CC(Nc2cccc3c2CN(C(=O)c2c(O)cc(C#N)cc2OCc2ccccc2)C3)C1` [Example 16, 4-(4-((1-Acetylazetidin-3-yl)amino)isoindoline-2-carbonyl)-3-(benzyloxy)-5-hydroxybenzonitrile], the concentration for half-maximal inhibition (IC50) was 100 to 1000 nM.
Regarding `N#Cc1cc(O)c(C(=O)N2CCc3cccc(N[C@H]4CCOC4)c3C2)c(OCc2ccccc2)c1` [Example 17, (S)-3-(Benzyloxy)-5-hydroxy-4-(8-((tetrahydrofuran-3-yl)amino)-1,2,3,4-tetrahydroisoquinoline-2-carbonyl)benzonitrile], the 50% inhibitory concentration (IC50) was 100 to 1000 nM.
For the compound `CN(C)CCOc1cc2c(c(N[C@@H]3CCOC3)c1)CN(C(=O)c1c(O)cc(C#N)cc1OCc1ccccc1)C2` [Example 18, (R)-3-(Benzyloxy)-4-(6-(2-(dimethylamino)ethoxy)-4-((tetrahydrofuran-3-yl)amino)isoindoline-2-carbonyl)-5-hydroxybenzonitrile], the IC50 fell in the range of 100 to 1000 nM.
In the case of `CN(C)CCOc1cc2c(c(N[C@H]3CCOC3)c1)CN(C(=O)c1c(O)cc(C#N)cc1OCc1ccccc1)C2` [Example 19, (S)-3-(Benzyloxy)-4-(6-(2-(dimethylamino)ethoxy)-4-((tetrahydrofuran-3-yl)amino)isoindoline-2-carbonyl)-5-hydroxybenzonitrile], the IC50 fell in the range of 100 to 1000 nM.
With `CN(C)CCOc1cc2c(c(N[C@@H]3CCOC3)c1)CN(C(=O)c1c(O)cc(Cl)cc1OCc1ccccc1)CC2` [Example 21, (R)-(2-(Benzyloxy)-4-chloro-6-hydroxyphenyl)(6-(2-(dimethylamino)ethoxy)-8-((tetrahydrofuran-3-yl)amino)-3,4-dihydroisoquinolin-2(1H)-yl)methanone], the 50% inhibitory concentration (IC50) was under 100 nM.
`CN(C)CCOc1cc2c(c(N[C@H]3CCOC3)c1)CN(C(=O)c1c(O)cc(Cl)cc1OCc1ccccc1)CC2` [Example 22, (S)-(2-(Benzyloxy)-4-chloro-6-hydroxyphenyl)(6-(2-(dimethylamino)ethoxy)-8-((tetrahydrofuran-3-yl)amino)-3,4-dihydroisoquinolin-2(1H)-yl)methanone]: the half-maximal inhibitory concentration (IC50) is under 100 nM.
For `O=C(c1c(O)cc(C(F)(F)F)cc1OCc1ccccc1)N1Cc2cccc(N[C@H]3CCOC3)c2C1` [Example 23, (S)-(2-(Benzyloxy)-6-hydroxy-4-(trifluoromethyl)phenyl) (4-((tetrahydrofuran-3-yl)amino)isoindolin-2-yl) methanone], the IC50 was in the range of 100 to 1000 nM.
Turning to `CN(C)Cc1cc2c(cn1)CN(C(=O)c1c(O)cc(C#N)cc1OCc1ccccc1)C2` [Example 27, 3-(Benzyloxy)-4-(6-((dimethylamino)methyl)-2,3-dihydro-1H-pyrrolo[3,4-c]pyridine-2-carbonyl)-5-hydroxybenzonitrile], the IC50 was 1000 to 10000 nM.
On to `CN1CCN(c2cc3c(cn2)CN(C(=O)c2c(O)cc(C#N)cc2OCc2ccccc2)C3)CC1` [Example 27.1, 3-(Benzyloxy)-5-hydroxy-4-(6-(4-methylpiperazin-1-yl)-2,3-dihydro-1H-pyrrolo[3,4-c]pyridine-2-carbonyl)benzonitrile], for which the IC50 was in the range of 1000 to 10000 nM.
The value for `O=C(c1c(O)cc(C(F)F)cc1OCc1ccccc1)N1CCc2ccc(NC3CCOC3)cc21` (centres unmarked) [Example 27.2, (2-(Benzyloxy)-4-(difluoromethyl)-6-hydroxyphenyl)(6-((tetrahydrofuran-3-yl)amino)indolin-1-yl)methanone] was 100 to 1000 nM; that for `N#Cc1cc(O)c(C(=O)N2CCc3ccc(NC4CCOC4)cc32)c(OCc2ccccc2)c1` (centres unmarked) [Example 27.3, 3-(Benzyloxy)-5-hydroxy-4-(6-((tetrahydrofuran-3-yl)amino)indoline-1-carbonyl)benzonitrile] was 1000 to 10000 nM.
With `N#Cc1cc(O)c(C(=O)N2CCc3cc(NC4CCOC4)ccc32)c(OCc2ccccc2)c1` (centres unmarked) [Example 27.4, 3-(Benzyloxy)-5-hydroxy-4-(5-((tetrahydrofuran-3-yl)amino)indoline-1-carbonyl)benzonitrile], the IC50 was 1000 to 10000 nM.
As to `O=C(c1c(O)cc(C(F)F)cc1OCc1ccccc1)N1CCc2cc(NC3CCOC3)ccc21` (centres unmarked) [Example 27.5, (2-(Benzyloxy)-4-(difluoromethyl)-6-hydroxyphenyl)(5-((tetrahydrofuran-3-yl)amino)indolin-1-yl)methanone], the 50% inhibitory concentration (IC50) lay in the range of 1000 to 10000 nM.
For `CN1CCC(Oc2ccc3c(c2)CCN(C(=O)c2c(O)cc(C#N)cc2OCc2ccccc2)CC3)CC1` [Example 27.6, 3-(Benzyloxy)-5-hydroxy-4-(7-((1-methylpiperidin-4-yl)oxy)-2,3,4,5-tetrahydro-1H-benzo[d]azepine-3-carbonyl)benzonitrile hydroformate], the concentration for half-maximal inhibition (IC50) is 1000 to 10000 nM.
With `CN1CCC(Oc2ccc3c(c2)CCN(C(=O)c2c(O)cc(C(F)F)cc2OCc2ccccc2)CC3)CC1` [Example 27.7, (2-(Benzyloxy)-4-(difluoromethyl)-6-hydroxyphenyl)(7-((1-methylpiperidin-4-yl)oxy)-1,2,4,5-tetrahydro-3H-benzo[d]azepin-3-yl)methanone], the half-inhibitory concentration (IC50) lay in the range of 100 to 1000 nM.
The value for `N#Cc1cc(O)c(C(=O)N2Cc3cnc(N4CCOCC4)cc3C2)c(OCc2ccccc2)c1` [Example 27.8, 3-(Benzyloxy)-5-hydroxy-4-(6-morpholino-2,3-dihydro-1H-pyrrolo[3,4-c]pyridine-2-carbonyl)benzonitrile] was 1000 to 10000 nM; that for `O=C(c1c(O)cc(C(F)F)cc1OCc1ccccc1)N1Cc2cnc(N3CCOCC3)cc2C1` [Example 27.9, (2-(Benzyloxy)-4-(difluoromethyl)-6-hydroxyphenyl)(6-morpholino-1,3-dihydro-2H-pyrrolo[3,4-c]pyridin-2-yl)methanone] was 100 to 1000 nM; that for `N#Cc1cc(O)c(C(=O)N2Cc3cnc(N)cc3C2)c(OCc2ccccc2)c1` [Example 27.10, 4-(6-Amino-2,3-dihydro-1H-pyrrolo[3,4-c]pyridine-2-carbonyl)-3-(benzyloxy)-5-hydroxybenzonitrile hydroformate] was 1000 to 10000 nM.
For the compound `Nc1cc2c(cn1)CN(C(=O)c1c(O)cc(C(F)F)cc1OCc1ccccc1)C2` [Example 27.11, (6-Amino-1,3-dihydro-2H-pyrrolo[3,4-c]pyridin-2-yl)(2-(benzyloxy)-4-(difluoromethyl)-6-hydroxyphenyl)methanone hydroformate], the IC50 is 100 to 1000 nM.
